Measurements as given in patent EP0539170A1, “Benzodiazepine derivatives and their use as antagonists of cholecystokinin and/or gastrin receptors” (priority 1991, dated 1993).

Target: T1, CCK Receptor (Pancreas) (Rattus norvegicus, UniProt P30551)
T1 construct: The whole pancreas was dissected free of fat tissue and was homogenized; from tissue; host or cells: rat pancreas membrane homogenate
T1 sequence (P30551 1-444): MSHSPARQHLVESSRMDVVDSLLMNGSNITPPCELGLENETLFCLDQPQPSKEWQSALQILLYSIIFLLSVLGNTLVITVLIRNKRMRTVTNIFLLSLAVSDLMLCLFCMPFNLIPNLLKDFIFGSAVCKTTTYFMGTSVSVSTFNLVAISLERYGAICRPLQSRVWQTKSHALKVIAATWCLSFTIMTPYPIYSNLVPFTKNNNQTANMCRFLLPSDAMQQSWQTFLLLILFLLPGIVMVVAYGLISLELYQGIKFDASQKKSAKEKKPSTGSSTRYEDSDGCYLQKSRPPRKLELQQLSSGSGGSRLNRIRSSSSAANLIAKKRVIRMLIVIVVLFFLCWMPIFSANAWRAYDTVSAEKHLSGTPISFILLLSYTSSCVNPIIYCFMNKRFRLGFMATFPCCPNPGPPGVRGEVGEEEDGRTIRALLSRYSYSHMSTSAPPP
Assay: CCK Receptor Binding (Pancreas), inhibition of specific 125I-CCK-8 binding
Parameters: species or system Sprague-Dawley rats
Conditions: rat whole pancreas membranes; 50 pM 125I-CCK-8; 25°C for 2 hours
Procedure: CCK-8 sulphated was radiolabelled with ¹²⁵I-Bolton Hunter reagent (2000 Ci/mmole). Receptor binding was performed according to Chang and Lotti (Proc. Natl. Acad. Sci. 83, 4923-4926, 1986) with minor modifications.
Male Sprague-Dawley rats (150-200g) were sacrificed by decapitation. The whole pancreas was dissected free of fat tissue and was homogenized in 25 volumes of ice-cold 10 mM N-2-hydroxyethyl-piperazine-N′-2-ethane sulphonic acid (HEPES) buffer with 0.1% soya bean trypsin inhibitor (pH 7.4 at 25°C) with a Kinematica Polytron. The homogenates were centrifuged at 47,800 g for 10 min. Pellets were resuspended in 10 volumes of binding assay buffer (20mM (HEPES)), 1mM ethylene glycol-bis-(β-aminoethylether-N,N′-tetraacetic acid) (EGTA), 5mM MgCl₂, 150 mM NaCl, bacitracin 0.25 mg/ml, soya bean trypsin inhibitor 0.1 mg/ml, and bovine serum albumin 2 mg/ml pH 6.5 at 25°C) using a Teflon (trademark) homogenizer, 15 strokes at 500 rpm. The homogenate was further diluted in binding assay buffer to give a final concentration of 0.5 mg original wet weight/1 ml buffer. […] All assays were run in duplicate. The reaction mixtures were incubated at 25°C for 2 hours and the reaction terminated by rapid filtration (Brandell 24 well cell harvester) over Whatman GF/C filters, washing 3 x 4 mls with ice-cold 100 Mm NaCl. The radioactivity on the filters was counted with a LKB gamma counter.
Drug displacement studies were performed with at least 10 concentrations of compounds of Formula I and the IC₅₀ values were determined by regression analysis IC₅₀ refers to the concentration of the compound required to inhibit 50% of specific binding of ¹²⁵I-CCK-8.

Row | Structure (SMILES) | IC50 [nM]
1 | CCCN1C(=O)C(NC(=O)Nc2cccc(C)c2)N=C(N2CCN(C)CC2)c2cc(C)ccc21 (racemic) [Example 38, N-(3(R,S)-2,3-Dihydro-7-methyl-5-(4-methylpiperazin-1-yl)-2-oxo-1-propyl-1H-1,4-benzodiazepin-3-yl]-N′-[3-methylphenyl]urea] | 1600
2 | CCCN1C(=O)C(NC(=O)Nc2cccc(NC(C)=O)c2)N=C(N2CCN(C)CC2)c2ccccc21 (racemic) [Example 39, N-[3(R,S)-2,3-Dihydro-5-(4-methylpiperazin-1-yl)-2-oxo-1-propyl-1H-1,4-benzodiazepin-3-yl]-N#MIN#-[3-(acetylamino)phenyl] urea] | > 3000
3 | CCCN1C(=O)C(NC(=O)Nc2cccc(C)c2)N=C(N2CCN(C)CC2)c2ccc(C)cc21 (racemic) [Example 42, N-[3(R,S)-2,3-Dihydro-8-methyl-5-(4-methylpiperazin-1-yl)-2-oxo-1-propyl-1H-1,4-benzodiazepin-3-yl]-N′-[3-methylphenyl] urea] | 711
4 | Cc1cccc(NC(=O)NC2N=C(N3CCCCCCC3)c3ccccc3N(C)C2=O)c1 (racemic) [Example 43, N-[3(R,S)-2,3-Dihydro-5-(heptamethyleneimin-1-yl)-1-methyl-2-oxo-1H-1,4-benzodiazepin-3-yl]-N#MIN#-[3-methylphenyl] urea] | 18.4
5 | CCCN1C(=O)C(NC(=O)Nc2cccc(C)c2)N=C(N2CCCCC2)c2ccccc21 (racemic) [Example 44, N-[3(R,S)-2,3-Dihydro-2-oxo-5-(piperidin-1-yl)-1-propyl-1H-1,4-benzodiazepin-3-yl]-N′-[3-methylphenyl] urea] | 120
6 | CCCN1C(=O)C(NC(=O)Nc2cccc(C)c2)N=C(N2CCN(C)CC2)c2ccc(N(C)C)cc21 (racemic) [Example 45, N-[3(R,S)-2,3-Dihydro-8-dimethylamino-5-(4-methylpiperazin-1-yl)-2-oxo-1-propyl-1H-1,4-benzodiazepin-3-yl]-N′-[3-methylphenyl] urea] | 956
7 | CN1C(=O)C(NC(=O)Nc2ccc3c(c2)CCC3)N=C(N2CCCCCC2)c2ccccc21 (racemic) [Example 46, N-[3(R,S)-2,3-Dihydro-5-(homopiperidin-1-yl)-1-methyl-2-oxo-1H-1,4-benzodiazepin-3-yl]-N′-[5-indanyl] urea] | 28.2
8 | CCCN1C(=O)C(NC(=O)Nc2cccc(C)c2)N=C(N2CCCCCC2)c2ccccc21 (racemic) [Example 47, N-[3(R,S)-2,3-Dihydro-5-(homopiperidin-1-yl)-2-oxo-1-propyl-1H-1,4-benzodiazepin-3-yl]-N′-[3-methylphenyl] urea] | 23.4
9 | CN1C(=O)C(NC(=O)Nc2cccc(C(F)(F)F)c2)N=C(N2CCCCCC2)c2ccccc21 (racemic) [Example 48, N-[3(R,S)-2,3-Dihydro-5-(homopiperidin-1-yl)-1-methyl-2-oxo-1H-1,4-benzodiazepin-3-yl]-N′-[3-trifluoromethylphenyl] urea] | 31.4
10 | CN(C)c1cccc(NC(=O)NC2N=C(N3CCCCCC3)c3ccccc3N(C)C2=O)c1 (racemic) [Example 49, N-[3(R,S)-2,3-Dihydro-5-(homopiperidin-1-yl)-1-methyl-2-oxo-1H-1,4-benzodiazepin-3-yl]-N′-[3-(dimethylamino)phenyl] urea] | 57.2
11 | CN1C(=O)C(NC(=O)Nc2ccc(C(C)(C)C)cc2)N=C(N2CCCCCC2)c2ccccc21 (racemic) [Example 50, N-[3(R,S)-2,3-Dihydro-5-(homopiperidin-1-yl)-1-methyl-2-oxo-1H-1,4-benzodiazepin-3-yl]-N′-[4-t-butylphenyl] urea] | 815
12 | CCCN1C(=O)C(NC(=O)Nc2ccc(N(C)C)cc2)N=C(N2CCN(C)CC2)c2ccccc21 (racemic) [Example 53, N-[3(R,S)-2,3-Dihydro-5-(4-methylpiperazin-1-yl)-2-oxo-1-propyl-1H-1,4-benzodiazepin-3-yl]-#′-[4-(dimethylamino)phenyl] urea] | > 3000
13 | CC(C)c1ccc(NC(=O)NC2N=C(N3CCCCCC3)c3ccccc3N(C)C2=O)cc1 (racemic) [Example 54, N-[3(R,S)-2,3-Dihydro-5-(homopiperidin-1-yl)-1-methyl-2-oxo-1H-1,4-benzodiazepin-3-yl]-N′-[4-isopropylphenyl] urea] | 399
14 | CCCN1C(=O)C(NC(=O)Nc2cccc(C)c2)N=C(N2CCSCC2)c2ccccc21 (racemic) [Example 55, N-[3(R,S)-2,3-Dihydro-2-oxo-1-propyl-5-(thiomorpholin-4-yl)-1H-1,4-benzodiazepin-3-yl]-N′-[3-methylphenyl] urea] | 337
15 | CCCN1C(=O)C(NC(=O)Nc2ccc3c(c2)N(C)CC3)N=C(N2CCN(C)CC2)c2ccccc21 (racemic) [Example 56, N-[3(R,S)-2,3-Dihydro-5-(4-methylpiperazin-1-yl)-2-oxo-1-propyl-1H-1,4-benzodiazepin-3-yl]-N#MIN#-[1-methyl-6-indolinyl] urea] | > 3000
16 | CN1C(=O)C(NC(=O)Nc2ccc(F)c(F)c2)N=C(N2CCCCCC2)c2ccccc21 (racemic) [Example 57, N-[3(R,S)-2,3-Dihydro-5-(homopiperidin-1-yl)-1-methyl-2-oxo-1H-1,4-benzodiazepin-3-yl]-N′-[3,4-difluorophenyl] urea] | 16.7
17 | CN1C(=O)C(NC(=O)Nc2cccc(F)c2)N=C(N2CCCCCC2)c2ccccc21 (racemic) [Example 60, N-[3(R,S)-2,3-Dihydro-5-(homopiperidin-1-yl)-1-methyl-2-oxo-1H-1,4-benzodiazepin-3-yl]-N′-[3-fluorophenyl] urea] | 7.16
18 | Cc1cccc(NC(=O)NC2N=C(N3CCCCCCCC3)c3ccccc3N(C)C2=O)c1 (racemic) [Example 61, N-[3(R,S)-2,3-Dihydro-1-methyl-5-(octamethyleneimin-1-yl)-2-oxo-1H-1,4-benzodiazepin-3-yl]-N#MIN#-[3-methylphenyl] urea] | 36.1
19 | CN1C(=O)C(NC(=O)Nc2cccc(-c3cc(=O)c(O)co3)c2)N=C(N2CCCCCC2)c2ccccc21 (racemic) [Example 62, N-[3(R,S)-2,3-Dihydro-5-(homopiperidin-1-yl)-1-methyl-2-oxo-1H-1,4-benzodiazepin-3-yl]-N′-[3-(5-hydroxy-4-pyron-2-yl)phenyl] urea] | 21.4
20 | CCc1cccc(NC(=O)NC2N=C(N3CCCCCC3)c3ccccc3N(C)C2=O)c1 (racemic) [Example 63, N-[3(R,S)-2,3-Dihydro-5-(homopiperidin-1-yl)-1-methyl-2-oxo-1H-1,4-benzodiazepin-3-yl]-N′-[3-ethylphenyl] urea] | 4.39
21 | CCN1C(=O)C(NC(=O)Nc2cccc(C)c2)N=C(N2CCCCCC2)c2ccccc21 (racemic) [Example 64, N-[3(R,S)-2,3-Dihydro-1-ethyl-5-(homopiperidin-1-yl)-2-oxo-1H-1,4-benzodiazepin-3-yl]-N′-[3-methylphenyl] urea] | 3.59
22 | Cc1cccc(NC(=O)NC2N=C(N3CCSCC3)c3ccccc3N(C)C2=O)c1 (racemic) [Example 65, N-[3(R,S)-2,3-Dihydro-1-methyl-2-oxo-5-(thiomorpholin-4-yl)-1H-1,4-benzodiazepin-3-yl]-N′-[3-methylphenyl] urea] | 17.2
23 | CN1C(=O)C(NC(=O)Nc2ccccc2)N=C(N2CCCCCC2)c2ccccc21 (racemic) [Example 66, N-[3(R,S)-2,3-Dihydro-5-(homopiperidin-1-yl)-1-methyl-2-oxo-1H-1,4-benzodiazepin-3-yl]-N′-phenyl urea] | 14.2
24 | CCc1cccc(NC(=O)NC2N=C(N3CCN(C)CC3)c3ccccc3N(CC(C)C)C2=O)c1 (single isomer, unassigned; (+)) [Example 27, (+)-N-[2,3-Dihydro-5-(4-methylpiperazin-1-yl)-1-(2-methylpropyl)-2-oxo-1H-1,4-benzodiazepin-3-yl]-N#MIN#-[3-ethylphenyl] urea] | 3080
25 | CCCN1C(=O)C(NC(=O)Nc2cccc(NC(=O)NC)c2)N=C(N2CCN(C)CC2)c2ccccc21 (single isomer, unassigned; (+)) [Example 40, (+)-N-[2,3-Dihydro-5-(4-methylpiperazin-1-yl)-2-oxo-1-propyl-1H-1,4-benzodiazepin-3-yl]-N′-[3-(methylaminocarbonylamino)phenyl] urea] | > 3000
